Molecular target: T1, histamine H4 receptor (Homo sapiens, UniProt Q9H3N8)
T1 construct: expressed in transfected cells; host or cells: HEK293SFM cells (membrane preparation)
Test: Inhibition of histamine H4 receptor (Table A1; H4 membrane binding assay)
Conditions: for IC50: histamine H4 receptor, "> a" = exceeds experiment limit
Method in brief: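 Radioligand binding was measured by filtration through PEI-treated GF/B filters with scintillation counting, using 1000× unlabeled ligand to define nonspecific binding. Membranes were prepared from HEK293SFM cells recombinantly expressing human H4 in ice-cold 50 mM Tris-HCl, pH 7.5, plus protease inhibitors.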

Row | IC50 | inhibition at 1 µM | Structure (SMILES)
1 | 80 nM |  | CC(C)NC(=O)N1CCC(c2ccc3c(c2)CN(c2cc(N4CCN(C)CC4)nc(N)n2)C(C)C3)CC1 (centres unmarked) [Example 140, 4-{2-[2-Amino-6-(4-methylpiperazin-1-yl)pyrimidin-4-yl]-3-methyl-1,2,3,4-tetrahydroisoquinolin-7-yl}-N-isopropylpiperidine-1-carboxamide]
2 | 48 nM |  | CC1Cc2ccc(-c3cnc4[nH]cnc4c3)cc2CN1c1cc(N2CCN(C)CC2)nc(N)n1 (centres unmarked) [Example 135, 4-[7-(3H-Imidazo[4,5-b]pyridin-6-yl)-3-methyl-3,4-dihydroisoquinolin-2(1H)-yl]-6-(4-methylpiperazin-1-yl)pyrimidin-2-amine]
3 | 355 nM |  | CC1Cc2ccc(-c3ccc(C(=O)N4CC[C@H](F)C4)nc3)cc2CN1c1cc(N2CCN(C)CC2)nc(N)n1 (single isomer, unassigned) [Example 154B]
4 | 84 nM |  | CC1Cc2ccc(C3=CCN(c4cc(C#N)ccn4)CC3)cc2CN1c1cc(N2CCN(C)CC2)nc(N)n1 (centres unmarked) [Example 137, 4-{2-[2-Amino-6-(4-methylpiperazin-1-yl)pyrimidin-4-yl]-3-methyl-1,2,3,4-tetrahydroisoquinolin-7-yl}-3,6-dihydro-2H-1,2′-bipyridine-4′-carbonitrile]
5 | 54 nM |  | CC(C)OC(=O)N1CCC(c2ccc3c(c2)CN(c2cc(N4CCN(C)CC4)nc(N)n2)C(C)C3)CC1 (centres unmarked) [Example 139, Isopropyl 4-{2-[2-amino-6-(4-methylpiperazin-1-yl)pyrimidin-4-yl]-3-methyl-1,2,3,4-tetrahydroisoquinolin-7-yl}piperidine-1-carboxylate]
6 | 42.1 nM |  | CNC(=O)N1CCC(c2ccc3c(c2)CN(c2cc(N4CCN(C)CC4)nc(N)n2)C(C)C3)CC1 (centres unmarked) [Example 151, 4-{2-[2-Amino-6-(4-methylpiperazin-1-yl)pyrimidin-4-yl]-3-methyl-1,2,3,4-tetrahydroisoquinolin-7-yl}-N-methylpiperidine-1-carboxamide]
7 | 30.6 nM |  | CC1Cc2ccc(C3CCN(S(C)(=O)=O)CC3)cc2CN1c1cc(N2CCN(C)CC2)nc(N)n1 (centres unmarked) [Example 148, 4-[3-Methyl-7-[1-(methylsulfonyl)piperidin-4-yl]-3,4-dihydroisoquinolin-2(1H)-yl]-6-(4-methylpiperazin-1-yl)pyrimidin-2-amine]
8 | 45 nM |  | CC1Cc2ccc(-c3cnn(CCN4CCOCC4)c3)cc2CN1c1cc(N2CCN(C)CC2)nc(N)n1 (single isomer, unassigned) [Example 104, 4-[3-Methyl-7-[1-(2-morpholin-4-ylethyl)-1H-pyrazol-4-yl]-3,4-dihydroisoquinolin-2(1H)-yl]-6-(4-methylpiperazin-1-yl)pyrimidin-2-amine]
9 | 148 nM |  | CN1CCN(c2cc(N3CCc4cc(F)c(-c5cccc(C(=O)N(C)C)c5)cc4C3)nc(N)n2)CC1 [Example 128, 3-{2-[2-Amino-6-(4-methylpiperazin-1-yl)pyrimidin-4-yl]-6-fluoro-1,2,3,4-tetrahydroisoquinolin-7-yl}-N,N-dimethylbenzamide]
10 | 20 nM |  | CC1Cc2ccc(-c3cnn(CCF)c3)cc2CN1c1cc(N2CCN(C)CC2)nc(N)n1 (single isomer, unassigned) [Example 100, 4-[7-[1-(2-fluoroethyl)-1H-pyrazol-4-yl]-3-methyl-3,4-dihydroisoquinolin-2(1H)-yl]-6-(4-methylpiperazin-1-yl)pyrimidin-2-amine]
11 | 36 nM |  | CCNC(=O)N1CCC(c2ccc3c(c2)CN(c2cc(N4CCN(C)CC4)nc(N)n2)C(C)C3)CC1 (centres unmarked) [Example 145, 4-{2-[2-Amino-6-(4-methylpiperazin-1-yl)pyrimidin-4-yl]-3-methyl-1,2,3,4-tetrahydroisoquinolin-7-yl}-N-ethylpiperidine-1-carboxamide]

Second part, the compound before the results:

Row | Structure (SMILES) | IC50 | inhibition at 1 µM
12 | CN1CCN(c2cc(N3CCc4ccc(C(=O)NC5CCCC5)cc4C3)nc(N)n2)CC1 [Example 28, 2-[2-Amino-6-(4-methylpiperazin-1-yl)pyrimidin-4-yl]-N-cyclopentyl-1,2,3,4-tetrahydroisoquinoline-7-carboxamide] | 754 nM | 
13 | CC1Cc2ccc(-c3ccn(CCO)n3)cc2CN1c1cc(N2CCN(C)CC2)nc(N)n1 (single isomer, unassigned) [Example 84A, 2-(3-{2-[2-Amino-6-(4-methylpiperazin-1-yl)pyrimidin-4-yl]-3-methyl-1,2,3,4-tetrahydroisoquinolin-7-yl}-1H-pyrazol-1-yl)ethanol] | 30 nM | 
14 | CC1Cc2ccc(-c3cnn(C4CCOCC4)c3)cc2CN1c1cc(N2CCN(C)CC2)nc(N)n1 (centres unmarked) [Example 95B, 4-(4-Methylpiperazin-1-yl)-6-[3-methyl-7-[1-(tetrahydro-2H-pyran-4-yl)-1H-pyrazol-4-yl]-3,4-dihydroisoquinolin-2(1H)-yl]pyrimidin-2-amine] |  | 79%
15 | CN1CCN(c2cc(N3CCc4ccc(Br)cc4C3)nc(N)n2)CC1 [Example 1, 4-(7-Bromo-3,4-dihydroisoquinolin-2(1H)-yl)-6-(4-methylpiperazin-1-yl)pyrimidin-2-amine] | 39 nM | 
16 | CC(=O)N1CCN(c2ccc3c(c2)CN(c2cc(N4CCN(C)CC4)nc(N)n2)CC3)CC1 [Example 31, 4-[7-(4-Acetylpiperazin-1-yl)-3,4-dihydroisoquinolin-2 (1H)-yl]-6-(4-methylpiperazin-1-yl)pyrimidin-2-amine] | 299 nM | 
17 | CN1CCN(c2cc(N3CCc4ccc(-c5cnn(C6(CC#N)CCCC6)c5)cc4C3)nc(N)n2)CC1 [Example 11, [1-(4-{2-[2-Amino-6-(4-methylpiperazin-1-yl)pyrimidin-4-yl]-1,2,3,4-tetrahydroisoquinolin-7-yl}-1,1-pyrazol-1-yl)cyclopentyl]acetonitrile] | 110 nM | 
18 | CC1Cc2ccc(-c3cnn(CCC#N)c3)cc2CN1c1cc(N2CCN(C)CC2)nc(N)n1 (single isomer, unassigned) [Example 96B, 3-(4-{2-[2-Amino-6-(4-methylpiperazin-1-yl)pyrimidin-4-yl]-3-methyl-1,2,3,4-tetrahydroisoquinolin-7-yl}-1H-pyrazol-1-yl)propanenitrile] | 352 nM | 
19 | CC1Cc2ccc(-c3ccn(CC#N)n3)cc2CN1c1cc(N2CCN(C)CC2)nc(N)n1 (single isomer, unassigned) [Example 82A, (3-{2-[2-Amino-6-(4-methylpiperazin-1-yl)pyrimidin-4-yl]-3-methyl-1,2,3,4-tetrahydroisoquinolin-7-yl}-1H-pyrazol-1-yl)acetonitrile] | 22 nM | 
20 | CN1CCN(c2cc(N3CCc4ccc(-c5ccn(C)c(=O)c5)cc4C3)nc(N)n2)CC1 [Example 43, 4-{2-[2-Amino-6-(4-methylpiperazin-1-yl)pyrimidin-4-yl]-1,2,3,4-tetrahydroisoquinolin-7-yl}-1-methylpyridin-2(1H)-one] | 99 nM | 
21 | CC1Cc2ccc(-c3ccc(C(=O)NCCO)nc3)cc2CN1c1cc(N2CCN(C)CC2)nc(N)n1 (centres unmarked) [Example 59, 5-{2-[2-Amino-6-(4-methylpiperazin-1-yl)pyrimidin-4-yl]-3-methyl-1,2,3,4-tetrahydroisoquinolin-7-yl}-N-(2-hydroxyethyl)pyridine-2-carboxamide] | 54 nM | 
22 | CC1Cc2ccc(-c3cccc(C(=O)N(C)C)n3)cc2CN1c1cc(N2CCN(C)CC2)nc(N)n1 (single isomer, unassigned) [Example 76, 6-{2-[2-Amino-6-(4-methylpiperazin-1-yl)pyrimidin-4-yl]-3-methyl-1,2,3,4-tetrahydroisoquinolin-7-yl}-N,N-dimethylpyridine-2-carboxamide] |  | 66%
23 | CN1CCN(c2cc(N3CCc4ccc(N5CCC(c6ccc(C(N)=O)cc6)CC5)cc4C3)nc(N)n2)CC1 [Example 40, 4-(1-{2-[2-Amino-6-(4-methylpiperazin-1-yl)pyrimidin-4-yl]-1,2,3,4-tetrahydroisoquinolin-7-yl}piperidin-4-yl)benzamide] | 39 nM | 
24 | CC1Cc2ccc(-c3ccnc(C(=O)N(C)CCN(C)C)c3)cc2CN1c1cc(N2CCN(C)CC2)nc(N)n1 (single isomer, unassigned) [Example 68B, 4-{2-[2-amino-6-(4-methylpiperazin-1-yl)pyrimidin-4-yl]-3-methyl-1,2,3,4-tetrahydroisoquinolin-7-yl}-N-[2-(dimethylamino)ethyl]-N-methylpyridine-2-carboxamide] | 32 nM | 
25 | CNC(=O)c1csc(-c2ccc3c(c2)CN(c2cc(N4CCN(C)CC4)nc(N)n2)CC3)n1 [Example 47, 2-{2-[2-Amino-6-(4-methylpiperazin-1-yl)pyrimidin-4-yl]-1,2,3,4-tetrahydroisoquinolin-7-yl}-N-methyl-1,3-thiazole-4-carboxamide] | 127 nM | 
26 | CC1Cc2ccc(-c3ccc(C(=O)N4CC(O)C4)cn3)cc2CN1c1cc(N2CCN(C)CC2)nc(N)n1 (single isomer, unassigned) [Example 73, 1-[(6-{2-[2-Amino-6-(4-methylpiperazin-1-yl)pyrimidin-4-yl]-3-methyl-1,2,3,4-tetrahydroisoquinolin-7-yl}pyridin-3-yl)carbonyl]azetidin-3-ol] | 195 nM | 
27 | CC1Cc2ccc(-c3ccn(CCC#N)n3)cc2CN1c1cc(N2CCN(C)CC2)nc(N)n1 (single isomer, unassigned) [Example 83B, 3-(3-{2-[2-Amino-6-(4-methylpiperazin-1-yl)pyrimidin-4-yl]-3-methyl-1,2,3,4-tetrahydroisoquinolin-7-yl}-1,1-pyrazol-1-yl)propanenitrile] |  | 61%
28 | CC1Cc2ccc(-c3cc(C(=O)NC4CC4)n(C)c3)cc2CN1c1cc(N2CCN(C)CC2)nc(N)n1 (single isomer, unassigned) [Example 91B, 4-{2-[2-Amino-6-(4-methylpiperazin-1-yl)pyrimidin-4-yl]-3-methyl-1,2,3,4-tetrahydroisoquinolin-7-yl}-N-cyclopropyl-1-methyl-1H-pyrrole-2-carboxamide] |  | 76%
29 | CC1Cc2ccc(-c3ccc(C(=O)N4CCC4)nc3)cc2CN1c1cc(N2CCN(C)CC2)nc(N)n1 (single isomer, unassigned) [Example 53B, 4-[7-[6-(azetidin-1-ylcarbonyl)pyridin-3-yl]-3-methyl-3,4-dihydroisoquinolin-2(1H)-yl]-6-(4-methylpiperazin-1-yl)pyrimidin-2-amine] | 176 nM | 

Reference: patent publication US20130244999A1, “Substituted Heterocyclic Compounds” (Incyte Corporation, priority 2008, published 2013)
